Experimental data as given in patent EP2276481B1, “USE OF BENZO-FUSED HETEROCYCLE SULFAMIDE DERIVATIVES FOR THE TREATMENT OF ANXIETY” (Janssen Pharmaceutica, N.V., priority 2008, dated 2009).

How the values were obtained:
Male Rj:NMRI mice = assay: Elevated Plus Maze, Mouse (EPM); assay type: in vivo; conditions: for Closed Arms Number of Entries % change / Open Arms Number of Entries % change / Open Arms Time Spent (sec) % change: change from vehicle control
Excerpt: Rodents avoid open spaces (in the case of the assay apparatus, the open arms of an elevated plus-maze). Compounds which have anti-anxiety activity increase exploratory activity of the rodents in the open arms of the elevated plus-maze. The EPM assay was run according to the procedure as described by Handley and Mithani (Naunyn. Schmied. Arch. Pharmacol., 327, 1-5, 1984).
Male Rj:NMRI mice, weighing 20 - 30 g (max. range per experiment = 5 g) at the beginning of the experiments, were obtained from Elevage Janvier, 53940 Le Genest-Saint-Isle, France and used in the assay. The animals were delivered to the laboratory at least 5 days before the experiments during which time they were acclimatized to laboratory conditions. The mice were housed in groups of 10 in Macrolon cages (25 x 19 x 13 cm) on wood litter (Litalabo-SPPS, 95100 Argenteuil, France) with free access to food (Code 113 - SAFE, 89290 Augy, France) and water until tested (or as indicated otherwise). The animal house was maintained under artificial lighting (12 hours) between 7:00 and 19:00 in a controlled ambient temperature of 21 ± 3°C, and relative humidity between 30-80%.
The elevated plus-maze consisted of 4 arms of equal length and width (14 x 5 cm) arranged in the form of a plus sign (+). Two opposite arms were enclosed by 12 cm high walls (closed arms). The 2 other arms had no walls (open arms). The maze was raised 56 cm above the floor. A mouse was placed in the centre of the plus-maze and left to explore the maze for 5 minutes. The number of entries into the open and closed arms and the time spent in the open arms was recorded. Ten (10) mice were used for each study group. The test was performed blind.
(§1) Compound #8 was evaluated at 30 mg/kg, 60 mg/kg and 120 mg/kg doses, administered p.o. 60 minutes before the test, and compared with a vehicle control group. Compound #8 was homogenized and dispersed using a mortar and a pestle in 0.2% hydroxypropylmethylcellulose (HPMC) in distilled water, which served as the vehicle. As a positive control, Clobazam (16 mg/kg p.o.), was administered under the same experimental conditions. Clobazam as URBANYL®tablets (16 mg/kg p.o.) were dispersed in 0.2% hydroxypropylmethylcellulose (HPMC) in distilled water for administration. Each experiment therefore included 5 study groups of 10 mice each.
Data were analyzed by comparing groups treated with compound #8 with groups treated with vehicle control using unpaired Student's t tests. Table 4: Effect of Compound #8 in EPM

Mouse = assay: Four Plate Test, Mouse; assay type: in vivo; conditions: for Number of Punished Crossings % Change: change from vehicle control
Excerpt: The Four Plate assay was run according to the procedure as described by Aron et al (Neuropharmacology, 10, 459-469, 1971). In this assay, the rodent experiences an electric shock upon crossing from one plate to another. Anxiolytics (such as benzodiazepines) increase the number of punished crossings.
Animals were placed individually in a white plastic enclosure containing a floor consisting of 4 metal plates connected to an electric shock generator (Apelex : Type 011346). The mouse was left to explore freely for 15 seconds. Then, every time the mouse crossed from one plate to another, it received a weak electric shock (2.5 mA, 1.5 s). The number of punished crossings were counted during a 1 minute test. Ten (10) mice were used for each study group. The test was performed blind.
as §1, with “(32” for “(16”
Data were analyzed by comparing groups treated with compound #8 with groups treated with vehicle control using unpaired Student's t tests. Table 5: Effect of Compound #8 in Four Plate

[1] = 16 mg/kg p.o., positive control, same experimental conditions, t test vs vehicle p < 0.001
[2] = 16 mg/kg p.o., positive control
[3] = 30 mg/kg p.o. 60 minutes before the test, 5 minutes in maze, t test vs vehicle (NS)
[4] = 30 mg/kg p.o. 60 minutes before the test
[5] = 60 mg/kg p.o. 60 minutes before the test, 5 minutes in maze, t test vs vehicle p < 0.01
[6] = 60 mg/kg p.o. 60 minutes before the test
[7] = 120 mg/kg p.o. 60 minutes before the test, 5 minutes in maze, t test vs vehicle p < 0.05
[8] = 120 mg/kg p.o. 60 minutes before the test

SMILES: CN1C(=O)CC(=O)N(c2ccccc2)c2cc(Cl)ccc21 [CLOBAZAM, Clobazam, reference compound]
- Open Arms Number of Entries Mean ± S.E.M. (Male Rj:NMRI mice; [1]): 11.7 ± 1.1 (***)
- Open Arms Time Spent (sec) Mean ± S.E.M. (Male Rj:NMRI mice; [1]): 120.1 ± 13.1 s
- Closed Arms Number of Entries Mean ± S.E.M. (Male Rj:NMRI mice; 16 mg/kg p.o., positive control, same experimental conditions, t test vs vehicle p < 0.05): 11.9 ± 1.5 (*)
- Closed Arms Number of Entries % change (Male Rj:NMRI mice; [2]): +59%
- Open Arms Number of Entries % change (Male Rj:NMRI mice; [2]): +350%
- Open Arms Time Spent (sec) % change (Male Rj:NMRI mice; [2]): +567%
- Number of Punished Crossings Mean ± S.E.M. (Mouse; 32 mg/kg p.o., positive control, same experimental conditions, t test vs vehicle p < 0.001): 9.9 ± 1.2 (***)

SMILES: NS(=O)(=O)NC[C@H]1COc2cc(Cl)ccc2O1 [Compound #8, (2S)-(-)-N-(6-Chloro-2,3-dihydro-benzo[1,4]dioxin-2-ylmethyl)-sulfamide]
- Closed Arms Number of Entries Mean ± S.E.M. (Male Rj:NMRI mice; [3]): 8.5 ± 0.9 (NS)
- Open Arms Number of Entries Mean ± S.E.M. (Male Rj:NMRI mice; [3]): 3.9 ±0.7 (NS)
- Open Arms Time Spent (sec) Mean ± S.E.M. (Male Rj:NMRI mice; 30 mg/kg p.o. 60 minutes before the test, 5 minutes in maze, t test vs vehicle p < 0.01): 44.6 ± 8.0 s
- Closed Arms Number of Entries % change (Male Rj:NMRI mice; [4]): +13%
- Open Arms Number of Entries % change (Male Rj:NMRI mice; [4]): +50%
- Open Arms Time Spent (sec) % change (Male Rj:NMRI mice; [4]): +148%
- Closed Arms Number of Entries Mean ± S.E.M. (Male Rj:NMRI mice; [5]): 10.3 ± 0.8 (**)
- Open Arms Number of Entries Mean ± S.E.M. (Male Rj:NMRI mice; [5]): 5.9 ± 1.0 (**)
- Open Arms Time Spent (sec) Mean ± S.E.M. (Male Rj:NMRI mice; [5]): 54.1 ± 10.6 s
- Closed Arms Number of Entries % change (Male Rj:NMRI mice; [6]): +37%
- Open Arms Number of Entries % change (Male Rj:NMRI mice; [6]): +127%
- Open Arms Time Spent (sec) % change (Male Rj:NMRI mice; [6]): +201%
- Open Arms Time Spent (sec) Mean ± S.E.M. (Male Rj:NMRI mice; 120 mg/kg p.o. 60 minutes before the test, 5 minutes in maze, t test vs vehicle p < 0.01): 38.6 ± 5.2 s
- Closed Arms Number of Entries Mean ± S.E.M. (Male Rj:NMRI mice; [7]): 10.0 ± 1.1 (*)
- Open Arms Number of Entries Mean ± S.E.M. (Male Rj:NMRI mice; [7]): 4.5 ± 0.6 (*)
- Closed Arms Number of Entries % change (Male Rj:NMRI mice; [8]): +33%
- Open Arms Number of Entries % change (Male Rj:NMRI mice; [8]): +73%
- Open Arms Time Spent (sec) % change (Male Rj:NMRI mice; [8]): +114%
- Number of Punished Crossings Mean ± S.E.M. (Mouse; 30 mg/kg p.o. 60 minutes before the test, 1 minute test, t test vs vehicle (NS)): 4.5 ± 0.6 (NS)
- Number of Punished Crossings % Change (Mouse; [4]): +15%
- Number of Punished Crossings Mean ± S.E.M. (Mouse; 60 mg/kg p.o. 60 minutes before the test, 1 minute test, t test vs vehicle (NS)): 4.5 ± 0.3 (NS)
- Number of Punished Crossings % Change (Mouse; [6]): +15%
- Number of Punished Crossings Mean ± S.E.M. (Mouse; 120 mg/kg p.o. 60 minutes before the test, 1 minute test, t test vs vehicle p < 0.01): 6.6 ± 0.6 (**)
- Number of Punished Crossings % Change (Mouse; [8]): +69%
